These are literature values, as cited in patent US20050209190A1, “Camptothecin complexes” (priority 2000, published 2005).

For series [1], the system named is human colon cancer xenografts. Particulars: mouse, in vivo.
The conditions of series [2]: administered intravenously; studies abandoned.
The subject of series [3] is tumorigenic human cells. Particulars: in vitro.
The test system of series [4] is nontumorigenic human cells. The conditions noted are these: in vitro.
For series [5], the system named is human tumor xenografts.

As for `CC[C@@]1(O)C(=O)OCc2c1cc1n(c2=O)Cc2cc3cc4c(cc3nc2-1)OCO4` [10,11 MD, 10,11-Methylendioxy-20(S)-Camptothecin], the “anticancer activity against human colon cancer xenografts” value in series [1] is “high anticancer activity”.
Consider `CC[C@@](O)(C(=O)[O-])c1cc2n(c(=O)c1CO)Cc1cc3ccccc3nc1-2.[Na+]` [CPT Na+], for which, in series [2], the “potency in clinical trials” value is reported as “low potency” and the “toxicity in clinical trials” value is reported as “high toxicity”.
Take `CC[C@@]1(O)C(=O)OCc2c1cc1n(c2=O)Cc2cc3ccccc3nc2-1` [CPT, 20(S)-camptothecin]: the solubility in water entry was “insoluble in water”. For the same compound, the “effect on tumorigenic cells” value in series [3] is listed as “cytotoxic”. The “effect on nontumorigenic cells” value in series [4] is “cytostatic”.
Consider `CC[C@@]1(O)C(=O)OCc2c1cc1n(c2=O)Cc2cc3c(N)cccc3nc2-1` [Example 9AC, 9-Amino-20(S)-Camptothecin], for which the “anticancer activity against human colon cancer xenografts” value in series [1] was “high anticancer activity”.
Regarding `CC[C@@]1(O)C(=O)OCc2c1cc1n(c2=O)Cc2cc3c([N+](=O)[O-])cccc3nc2-1` [Example 9NC, 9-nitrocamptothecin], in series [5] (immunodeficient nude mice), the “growth of human tumor xenografts” value was “inhibited the growth”. For the same compound, in series [5] (mouse, in vivo), the “activity against human tumor xenograft models” value is reported as “high activity”. Further, in series [5] (nude mice), the “regression of human tumors established as xenografts” value is “induced regression”.
